According to ChEMBL document CHEMBL1201862, “PubChem BioAssay data set” (2004):
Calls of active or inactive are those of the source.

What was measured:
[1] = viability inhibitors of stage V gametocytes – luminescence, dose response (AID 1117278); format: functional, cell-based;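 further: gametocytes exposed to compound for 24 hours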
[2] = viability loss in human Jurkat cells – cell-based, luminescence, cytotoxicity control for P. falciparum gametocyte viability project, dose response (AID 1117277); format: functional;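 further: potency reflects loss of cellular ATP meaning fewer viable cells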
Caspase-6 = target: T1, Caspase-6 (Homo sapiens, UniProt P55212); test: inhibition of CASP6 peptide cleavage – biochemical, VEID-R110 fluorescence, cherry-pick, dose response (AID 720632)
T1 sequence (P55212 whole entry): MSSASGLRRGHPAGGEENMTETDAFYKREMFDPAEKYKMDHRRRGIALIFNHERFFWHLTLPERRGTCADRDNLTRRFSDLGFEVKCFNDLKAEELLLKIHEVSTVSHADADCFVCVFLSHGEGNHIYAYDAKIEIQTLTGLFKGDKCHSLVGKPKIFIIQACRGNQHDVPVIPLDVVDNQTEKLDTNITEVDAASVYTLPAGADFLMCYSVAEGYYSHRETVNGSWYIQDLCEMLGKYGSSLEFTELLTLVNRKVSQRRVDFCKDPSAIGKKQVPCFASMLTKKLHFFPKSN

Prothrombin = Prothrombin (Homo sapiens, UniProt P00734); test: Thrombin 1536 HTS Dose Response Confirmation. [Related pubchem assays: 1046 (Thrombin 1536 HTS; hits were confirmed in this assay)]; format: functional
[3] = target: T2, Sentrin-specific protease 8 (Homo sapiens, UniProt Q96LD8); format: functional
T2 sequence (Q96LD8 whole entry): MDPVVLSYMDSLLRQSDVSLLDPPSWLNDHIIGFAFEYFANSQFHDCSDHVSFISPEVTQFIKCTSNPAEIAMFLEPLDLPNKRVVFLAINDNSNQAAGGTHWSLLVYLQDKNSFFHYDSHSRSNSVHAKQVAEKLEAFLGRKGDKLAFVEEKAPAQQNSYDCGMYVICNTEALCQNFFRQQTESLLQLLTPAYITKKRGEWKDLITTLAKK

Coagulation factor XII = target: T3, Coagulation factor XII (Homo sapiens, UniProt P00748); test: activated coagulation factor XII inhibitor potency, concentration-effect curve, cell-free (AID 716); format: functional
T3 sequence (P00748 whole entry): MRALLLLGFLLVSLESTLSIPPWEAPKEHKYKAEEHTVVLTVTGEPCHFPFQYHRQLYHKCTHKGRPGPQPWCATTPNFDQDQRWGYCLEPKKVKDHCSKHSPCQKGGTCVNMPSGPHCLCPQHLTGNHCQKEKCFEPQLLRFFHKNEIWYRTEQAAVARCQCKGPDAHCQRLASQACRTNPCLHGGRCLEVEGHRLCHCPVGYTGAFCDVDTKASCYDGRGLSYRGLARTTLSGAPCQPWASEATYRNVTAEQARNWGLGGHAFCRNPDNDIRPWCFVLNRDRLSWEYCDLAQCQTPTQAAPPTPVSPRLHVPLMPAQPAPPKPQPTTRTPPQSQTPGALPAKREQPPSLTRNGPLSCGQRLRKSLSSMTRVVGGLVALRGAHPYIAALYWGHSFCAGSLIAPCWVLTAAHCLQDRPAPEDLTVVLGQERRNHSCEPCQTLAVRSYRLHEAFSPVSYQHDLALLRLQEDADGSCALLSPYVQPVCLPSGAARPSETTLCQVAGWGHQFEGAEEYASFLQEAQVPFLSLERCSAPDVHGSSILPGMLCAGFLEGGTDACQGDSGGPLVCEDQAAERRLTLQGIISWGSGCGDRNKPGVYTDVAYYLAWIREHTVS

[4] = target: Melanin-concentrating hormone receptor 1 (Homo sapiens, UniProt Q99705); test: Fluorescence-based counterscreen for antagonists of the G-protein coupled receptor 7 (GPR7): cell-based high throughput dose response assay to identify antagonists of the melanin-concentrating hormone receptor 1 (MCHR1).; format: functional
Chain of Melanin-concentrating hormone receptor 1 (Q99705 whole entry): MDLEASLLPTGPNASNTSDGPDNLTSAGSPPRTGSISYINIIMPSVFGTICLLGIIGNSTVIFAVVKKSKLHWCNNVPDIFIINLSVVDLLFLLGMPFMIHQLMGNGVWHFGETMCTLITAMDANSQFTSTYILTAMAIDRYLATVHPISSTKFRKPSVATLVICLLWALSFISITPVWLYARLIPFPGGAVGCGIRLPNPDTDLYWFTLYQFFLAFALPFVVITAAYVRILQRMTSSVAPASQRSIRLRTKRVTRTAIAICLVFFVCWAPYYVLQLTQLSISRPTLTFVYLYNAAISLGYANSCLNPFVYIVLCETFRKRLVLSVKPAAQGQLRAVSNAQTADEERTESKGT

[5] = target: DNA dC->dU-editing enzyme APOBEC-3A (Homo sapiens, UniProt P31941); test: Dose Response confirmation of small molecule APOBEC3A DNA Deaminase Inhibitors via a fluorescence-based single-stranded DNA deaminase assay. [Related pubchem assays (depositor defined):AID493011, AID493024]; format: functional
Chain of DNA dC->dU-editing enzyme APOBEC-3A (P31941 whole entry): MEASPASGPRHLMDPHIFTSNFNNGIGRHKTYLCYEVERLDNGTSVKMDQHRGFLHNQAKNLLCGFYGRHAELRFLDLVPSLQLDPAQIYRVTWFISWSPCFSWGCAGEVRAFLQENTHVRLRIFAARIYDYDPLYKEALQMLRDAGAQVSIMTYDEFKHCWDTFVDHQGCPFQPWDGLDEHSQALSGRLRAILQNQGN

[6] = target: DNA dC->dU-editing enzyme APOBEC-3G (Homo sapiens, UniProt Q9HC16); format: functional;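 further: Dose-response counterscreen measuring inhibition of APOBEC3G DNA deaminase activity, run while confirming APOBEC3A inhibitors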
Chain of DNA dC->dU-editing enzyme APOBEC-3G (Q9HC16 whole entry): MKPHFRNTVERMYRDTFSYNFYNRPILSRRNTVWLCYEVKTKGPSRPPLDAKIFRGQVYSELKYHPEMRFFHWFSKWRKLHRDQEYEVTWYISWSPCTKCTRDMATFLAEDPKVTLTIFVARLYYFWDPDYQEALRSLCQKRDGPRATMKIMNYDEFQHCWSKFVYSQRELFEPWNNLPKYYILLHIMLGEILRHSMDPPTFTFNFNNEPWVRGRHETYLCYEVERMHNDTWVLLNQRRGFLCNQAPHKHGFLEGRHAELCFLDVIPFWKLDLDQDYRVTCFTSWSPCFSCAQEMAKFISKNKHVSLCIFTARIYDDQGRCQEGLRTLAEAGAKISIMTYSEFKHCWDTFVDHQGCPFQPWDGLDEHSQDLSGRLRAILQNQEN

[7] = Vero E6 cell cytotoxicity, dose response, cytotoxicity control for non-replicating M. tuberculosis project, secondary assay (AID 492998); format: functional, VeroE6; conditions: Vero C1008
cells = format: functional
[8] = THP-1 cell cytotoxicity, dose response, cytotoxicity control for non-replicating M. tuberculosis project (AID 489025); format: functional
[9] = HepG2 cell cytotoxicity, dose response, cytotoxicity control for non-replicating M. tuberculosis project (AID 489018); format: functional; conditions: Mycobacterium tuberculosis
[10] = target: T4, COUP transcription factor 2 (Homo sapiens, UniProt P24468); test: Luminescence-based cell-based high throughput dose response assay to identify inhibitors of COUP-TFII (NR2F2).; format: functional;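 further: HEK293 cells transiently cotransfected with COUP-TFII expression vector and reporter; luciferase reporter luminescence driven by COUP-TFII from the pX2-168 reporter plasmid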
T4 sequence (P24468 whole entry): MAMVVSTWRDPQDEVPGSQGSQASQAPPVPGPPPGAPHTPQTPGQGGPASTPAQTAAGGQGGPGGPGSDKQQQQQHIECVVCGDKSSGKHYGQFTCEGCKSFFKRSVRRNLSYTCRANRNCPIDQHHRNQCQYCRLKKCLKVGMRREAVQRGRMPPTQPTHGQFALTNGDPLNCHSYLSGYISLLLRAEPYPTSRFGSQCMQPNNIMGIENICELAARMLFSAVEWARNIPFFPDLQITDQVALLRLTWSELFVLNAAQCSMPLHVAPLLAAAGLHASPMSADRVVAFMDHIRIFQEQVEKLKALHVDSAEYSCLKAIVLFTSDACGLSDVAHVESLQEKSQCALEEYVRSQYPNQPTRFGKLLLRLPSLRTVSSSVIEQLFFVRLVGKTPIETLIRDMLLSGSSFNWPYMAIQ

Fatty acid synthase [11] = target: T5, Fatty acid synthase (Homo sapiens, UniProt P49327); test: inhibition of human FAS-TE enzyme activity – biochemical, kinetic fluorescence intensity, dose response (AID 624326); format: functional;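 further: rate of fluorescence rise from hydrolysis of a fluorogenic O-methyl fluorescein ester substrate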
T5 sequence (P49327 whole entry): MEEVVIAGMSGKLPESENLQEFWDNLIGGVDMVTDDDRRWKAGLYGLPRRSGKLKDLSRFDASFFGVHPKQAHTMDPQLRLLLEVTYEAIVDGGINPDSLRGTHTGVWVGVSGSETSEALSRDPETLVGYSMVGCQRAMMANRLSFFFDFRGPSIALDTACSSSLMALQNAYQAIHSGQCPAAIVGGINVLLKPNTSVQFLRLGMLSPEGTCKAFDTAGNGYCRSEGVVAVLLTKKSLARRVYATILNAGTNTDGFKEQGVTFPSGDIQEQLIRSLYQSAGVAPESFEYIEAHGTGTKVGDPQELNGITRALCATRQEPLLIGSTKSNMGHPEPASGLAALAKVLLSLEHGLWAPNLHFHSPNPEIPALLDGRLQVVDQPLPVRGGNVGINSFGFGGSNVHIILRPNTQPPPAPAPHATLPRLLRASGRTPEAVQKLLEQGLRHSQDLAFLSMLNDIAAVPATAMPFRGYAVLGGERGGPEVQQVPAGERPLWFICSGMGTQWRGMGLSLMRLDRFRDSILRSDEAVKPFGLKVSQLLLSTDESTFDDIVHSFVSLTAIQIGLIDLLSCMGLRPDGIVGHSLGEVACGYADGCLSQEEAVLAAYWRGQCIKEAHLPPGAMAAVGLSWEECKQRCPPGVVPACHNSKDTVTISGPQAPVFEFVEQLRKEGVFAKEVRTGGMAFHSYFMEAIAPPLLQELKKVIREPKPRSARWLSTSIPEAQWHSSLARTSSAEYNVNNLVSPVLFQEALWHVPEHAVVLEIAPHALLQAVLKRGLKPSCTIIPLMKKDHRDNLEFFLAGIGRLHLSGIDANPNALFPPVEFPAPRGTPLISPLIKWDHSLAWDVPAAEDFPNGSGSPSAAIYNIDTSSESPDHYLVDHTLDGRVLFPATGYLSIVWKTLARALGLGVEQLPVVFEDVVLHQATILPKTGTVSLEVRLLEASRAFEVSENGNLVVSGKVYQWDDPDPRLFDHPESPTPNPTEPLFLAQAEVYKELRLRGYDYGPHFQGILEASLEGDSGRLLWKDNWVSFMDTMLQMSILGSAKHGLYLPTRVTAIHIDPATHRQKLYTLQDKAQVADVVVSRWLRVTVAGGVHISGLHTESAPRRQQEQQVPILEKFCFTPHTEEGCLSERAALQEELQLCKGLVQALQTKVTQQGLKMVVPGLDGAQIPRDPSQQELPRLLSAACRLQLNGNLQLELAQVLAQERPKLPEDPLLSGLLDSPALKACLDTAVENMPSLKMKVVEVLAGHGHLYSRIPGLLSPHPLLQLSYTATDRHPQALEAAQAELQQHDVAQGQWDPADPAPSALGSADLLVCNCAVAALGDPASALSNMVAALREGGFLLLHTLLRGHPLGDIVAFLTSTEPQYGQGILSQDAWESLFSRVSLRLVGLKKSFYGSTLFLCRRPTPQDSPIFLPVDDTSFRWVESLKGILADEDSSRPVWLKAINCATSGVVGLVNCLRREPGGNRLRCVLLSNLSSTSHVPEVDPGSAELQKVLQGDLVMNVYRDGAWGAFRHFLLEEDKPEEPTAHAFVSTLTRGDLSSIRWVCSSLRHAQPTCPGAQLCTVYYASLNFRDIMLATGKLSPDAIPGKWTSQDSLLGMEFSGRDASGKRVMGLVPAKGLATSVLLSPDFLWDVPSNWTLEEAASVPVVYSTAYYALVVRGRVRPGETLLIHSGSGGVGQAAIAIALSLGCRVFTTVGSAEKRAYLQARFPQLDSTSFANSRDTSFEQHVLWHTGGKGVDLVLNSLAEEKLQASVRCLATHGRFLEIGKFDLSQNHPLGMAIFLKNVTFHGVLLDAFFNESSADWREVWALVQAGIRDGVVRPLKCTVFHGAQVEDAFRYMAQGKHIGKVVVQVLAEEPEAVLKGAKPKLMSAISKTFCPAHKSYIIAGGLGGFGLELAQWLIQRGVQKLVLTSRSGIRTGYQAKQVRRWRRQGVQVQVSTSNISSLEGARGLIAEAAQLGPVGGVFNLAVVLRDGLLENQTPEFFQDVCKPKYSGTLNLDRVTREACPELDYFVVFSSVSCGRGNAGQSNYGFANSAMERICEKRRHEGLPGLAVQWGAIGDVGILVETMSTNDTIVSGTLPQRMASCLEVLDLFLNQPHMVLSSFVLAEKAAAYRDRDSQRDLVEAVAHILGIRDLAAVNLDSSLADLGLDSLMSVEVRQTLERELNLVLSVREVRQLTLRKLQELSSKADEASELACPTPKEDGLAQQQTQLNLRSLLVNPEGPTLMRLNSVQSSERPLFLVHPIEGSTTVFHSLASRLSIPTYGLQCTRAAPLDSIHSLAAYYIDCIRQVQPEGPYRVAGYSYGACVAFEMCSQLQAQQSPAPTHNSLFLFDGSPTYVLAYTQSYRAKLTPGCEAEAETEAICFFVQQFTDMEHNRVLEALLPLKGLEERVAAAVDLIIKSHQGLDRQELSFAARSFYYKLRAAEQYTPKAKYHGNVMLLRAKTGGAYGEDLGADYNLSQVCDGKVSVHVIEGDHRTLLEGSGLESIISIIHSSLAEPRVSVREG

Fatty acid synthase [12] = target: T5, Fatty acid synthase; test: inhibition of human FAS-TE enzyme activity – biochemical, endpoint fluorescence intensity, uHTS hits, dose response (AID 624327); format: functional;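 further: fluorescence from hydrolysis of an O-methyl fluorescein acyl ester substrate by the enzyme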
[13] = target: T6, Microphthalmia-associated transcription factor (Homo sapiens, UniProt O75030); test: reducers of TRPM1 reporter luminescence, concentration series – cell-based, SK-MEL-5, cherry-picked, set 3, MITF inhibitor project, dose response (AID 493073); format: functional;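 further: SK-MEL-5 melanoma cells with luciferase driven by the MITF target TRPM1 promoter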
T6 sequence (O75030 whole entry): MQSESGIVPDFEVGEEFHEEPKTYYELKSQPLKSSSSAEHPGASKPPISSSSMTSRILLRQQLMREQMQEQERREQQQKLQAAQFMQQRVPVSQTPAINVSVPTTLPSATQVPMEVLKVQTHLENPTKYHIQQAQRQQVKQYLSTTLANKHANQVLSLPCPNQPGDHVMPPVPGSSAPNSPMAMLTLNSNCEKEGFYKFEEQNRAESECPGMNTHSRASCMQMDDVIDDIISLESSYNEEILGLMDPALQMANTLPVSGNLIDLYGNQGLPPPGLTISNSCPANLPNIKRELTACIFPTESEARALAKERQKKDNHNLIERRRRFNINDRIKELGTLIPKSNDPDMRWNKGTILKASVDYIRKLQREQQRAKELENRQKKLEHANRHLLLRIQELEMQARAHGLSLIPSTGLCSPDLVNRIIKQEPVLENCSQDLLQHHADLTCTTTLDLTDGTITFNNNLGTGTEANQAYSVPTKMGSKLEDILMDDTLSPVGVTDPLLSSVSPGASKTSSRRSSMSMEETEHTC

Leucine aminopeptidase = target: T7, Leucine aminopeptidase (Plasmodium falciparum 3D7, UniProt Q8IL11); test: P. falciparum M17LAP inhibitors, primary screen, biochemical, fluorogenic H-Leu-NHMec substrate, 1536-well (AID 1619); format: functional
T7 sequence (Q8IL11 whole entry): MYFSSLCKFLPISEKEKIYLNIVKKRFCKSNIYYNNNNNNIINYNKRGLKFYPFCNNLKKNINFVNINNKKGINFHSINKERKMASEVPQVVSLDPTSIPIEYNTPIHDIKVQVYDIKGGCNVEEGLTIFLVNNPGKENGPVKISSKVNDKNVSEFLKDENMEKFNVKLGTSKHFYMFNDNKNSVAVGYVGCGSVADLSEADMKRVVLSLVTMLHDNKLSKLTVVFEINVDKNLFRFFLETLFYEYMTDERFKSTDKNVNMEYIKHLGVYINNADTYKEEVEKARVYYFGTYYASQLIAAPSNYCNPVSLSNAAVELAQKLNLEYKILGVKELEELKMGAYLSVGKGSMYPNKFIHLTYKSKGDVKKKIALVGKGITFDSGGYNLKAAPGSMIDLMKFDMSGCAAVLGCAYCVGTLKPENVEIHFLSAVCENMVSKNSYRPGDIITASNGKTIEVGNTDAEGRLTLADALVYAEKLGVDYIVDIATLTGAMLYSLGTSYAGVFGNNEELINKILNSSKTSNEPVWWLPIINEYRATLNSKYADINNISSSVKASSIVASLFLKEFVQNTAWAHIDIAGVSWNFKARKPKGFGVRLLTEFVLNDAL

With CC(C)CNC(=O)CCCc1ccccc1 as the molecule, how does the IC50 [1] read?
Its IC50 is > 109 µM (inactive).

What about the IC50 [2] of the same molecule?
The IC50 was > 83.4 µM (inactive).

What does the source list for CC(=O)C[C@@H](O)CC(=O)[C@H]1OC(=O)CC/C=C\Cc2ccccc21?
IC50 [1]: > 109 µM (inactive); IC50 [2]: > 83.3 µM (inactive)

For CC(=O)N1CCc2cc(Br)cc(S(=O)(=O)N3CCC(C(=O)O)CC3)c21, which AC50 (Caspase-6) is on record?
The AC50 was 30.4 µM (active).

What does the source list for CN(C)c1ccc(NC(=O)c2ccc(Cn3cc([N+](=O)[O-])cn3)cc2)cc1?
IC50 (Prothrombin): > 50 µM (not active); IC50 [3]: 23.2 µM (active)

With O=C(c1ccco1)N1CCN(S(=O)(=O)c2ccc(Oc3ccccc3)cc2)CC1 as the molecule, how does the IC50 (Coagulation factor XII) read?
Its IC50 is > 50 µM (inactive).

For Cc1cc([N+](=O)[O-])cc(C)c1OCC(=O)N/N=C/c1ccc(OC(=O)c2ccccc2)cc1, which IC50 [4] is on record?
Its IC50 is > 43.8 µM (not active).

For O=C(COC(=O)c1cncc(Br)c1)NC1CCCCCC1, which IC50 [1] is on record?
Its IC50 is > 109 µM (inactive).

And the IC50 [2]?
Its IC50 is > 83.3 µM (inactive).

Which AC50 (Caspase-6) does the source give for CCOc1cc(N2CCOCC2)c(OCC)cc1NS(=O)(=O)c1cc(NC(C)=O)ccc1OC here?
The AC50 was 34.5 µM (active).

For CN1CCCN(S(=O)(=O)c2ccccc2)CC1, which IC50 [5] is on record?
The IC50 was 4.85 µM (active).

What about the IC50 [6] of the same molecule?
Its IC50 is 5.93 µM (active).

Which IC50 (Prothrombin) does the source give for O=C(COc1cc(Cl)c(Cl)cc1Cl)N1CCN(c2ccccn2)CC1 here?
Its IC50 is > 50 µM (not active).

For Oc1nc(-c2ccccn2)nc2ccccc12, which CC50 [7] is on record?
Its CC50 is 19.6 µM (active).

And the IC50 (cells)?
Its IC50 is 3.56 µM (active).

What about the CC50 [8] of the same molecule?
Its CC50 is > 40 µM (active).

And the CC50 [9]?
Its CC50 is > 20 µM (active).

Which results are given for CC(C)(C)c1ccc(/C=N/Nc2ccc(C(=O)O)cc2)cc1?
IC50 [10]: > 9.49 µM (active); IC50 (Fatty acid synthase [11]): 8.76 µM (active); IC50 (Fatty acid synthase [12]): 7.49 µM (active); AC50 [13]: 6.03 µM (active); IC50 (Leucine aminopeptidase): 13.3 µM (active)

Which IC50 (Coagulation factor XII) does the source give for CC(=O)NCC(=O)OCC(=O)Nc1ccc(C(C)=O)cc1 here?
The IC50 was > 50 µM (inactive).
